In US11547681B2, “N-acylethanolamide derivatives and uses thereof” (ELIEM THERAPEUTICS, INC., priority 2016, dated 2023):
“Also recorded” adds a separate entry of the source.

How the values were obtained:
[1] = rat, in vivo, po
[2] = PEA levels in New Zealand White rabbit plasma samples after oral administration; assay type: in vivo; conditions: individual rabbits, predose
[3] = Plasma stability (37° C., pH 7.4), dog; assay type: in vitro ADME, Beagle dog; conditions: for half-life at 1 μM: male, Beagle, dog, plasma, pH 7.4, dog plasma; for % Remaining of Initial: 1 μM, n = 1
Experimental: (§1) Studies were carried out in mixed-gender human plasma (Lot #GLP530-5), male Sprague-Dawley rat (Lot #RAT297944, RAT313140), male CD-1 mouse (Lot #MSE237700), and male Beagle dog (Lot #BGL87670, BGL82614), collected on sodium heparin. Plasma was adjusted to pH 7.4 prior to initiating the experiments. DMSO stocks were first prepared for the test articles. Aliquots of the DMSO solutions were dosed into 700 μL of plasma, which had been pre-warmed to 37° C., at a final test article concentration of 1 μM. […] Samples were stored at 4° C. until the end of the experiment. After the final time point was sampled, the plate was mixed and then centrifuged at 3,000 rpm for 10 minutes. Calibration standards were prepared in matched matrix. […] Analytical conditions are outlined in Appendix 8-1.
as §1, with “#AS1650-2),” for “#GLP530-5),”, “#RAT297944),” for “#RAT297944, RAT313140),”, “CD-I” for “CD-1”, “#BGL91384),” for “#BGL87670, BGL82614),”, “10-1.” for “8-1.”
Studies were carried out in mixed-gender human plasma (Lot #AS1650-2), male Sprague-Dawley rat (Lot #RAT297944), male CD-1 mouse (Lot #MSE237700), and male Beagle dog (Lot #BGL91384), collected on sodium heparin. Plasma was adjusted to pH 7.4 prior to initiating the experiments. DMSO stocks were first prepared for test articles. […] Samples were stored at 4° C. until the end of experiment. After the final time point was sampled, the plate was mixed and then centrifuged at 3,000 rpm for 10 minutes. Calibration standards were prepared in matched matrix. […] Analytical conditions are outlined in Appendix 13-1.
Studies were carried out in mixed-gender human plasma (Lot #AS 1650-2), male Sprague-Dawley rat (Lot #RAT320835), male CD-1 mouse (Lot #MSE260693), and 6 male Beagle dog (Lot #BGL91384), on sodium heparin. Plasma was adjusted to pH 7.4 prior to initiating the experiments. DMSO stocks were first prepared for the test articles. Aliquots of the DMSO solutions were dosed into 700 μL of plasma, which had been pre-warmed to 37° C., at a final test article concentration of 1 μM. […] Samples were stored at 4° C. until the end of the experiment. After the final time point was sampled, the plate was mixed and then centrifuged at 3,000 rpm for 10 minutes. Calibration standards were prepared in matched matrix. […] Analytical conditions are outlined in Appendix 17-1.

[4] = Summary of half life data (Table A), matrix not stated; assay type: in vitro ADME
[5] = test system: Sprague Dawley rats, carrageenan-induced thermal hyperalgesia; assay: Carrageenan-induced inflammatory model, thermal hyperalgesia testing; assay type: in vivo, Sprague Dawley rat
Experimental: Sixty male Sprague Dawley rats were used in this study. Baseline thermal hyperalgesia thresholds were determined on day -1; animals were divided into 6 groups based on baseline thermal hyperalgesia thresholds. On day 0, animals received an oral dose of vehicle or I-16. Approximately 30 minutes after dosing the animals received an intra-plantar injection of 2% carrageenan solution. The animals were assessed for thermal hyperalgesia approximately 4 and approximately 24 hours after carrageenan injection.
Thermal hyperalgesia was assessed at baseline (prior to dosing with either vehicle or I-16), 4 hours, and 24 hours post-carrageenan injection.
Mean±SEM ipsilateral paw withdrawal latencies following carrageenan injection in vehicle and I-16 treated animals during the pharmacological assessment period (day 0).

[6] = Simulated intestinal fluid stability, SIF containing pancreatin; assay type: in vitro ADME; conditions: for % Remaining of Initial (n = 1): 1 μM (Example 14); for Measured Concentration of Drug: test article dosed at 1 μM (Example 14)

CCCCCCCCCCCCCCCC(=O)NCCOC(=O)CCC(=O)OCC(O)CO (stereo not drawn) [Compound I-9]
PEA-prodrug in plasma samples [1]: not detectable | PEA concentration in plasma, Day −3 ([2]; Group 3, 32 mg/kg/day): BLOQ (below the limit of quantitation (2.5 ng/mL)) | PEA concentration in plasma, Day −5 ([2]; Group 3, 32 mg/kg/day): BLOQ (below the limit of quantitation (2.5 ng/mL)) | PEA concentration in plasma, Day −3 ([2]; Group 4, 160 mg/kg/day): BLOQ (below the limit of quantitation (2.5 ng/mL)) | PEA concentration in plasma, Day −5 ([2]; Group 4, 160 mg/kg/day): BLOQ (below the limit of quantitation (2.5 ng/mL)) | % Remaining of Initial (n = 1), 0 min ([3]; dog plasma, test article 1 μM, 37° C., pH 7.4, 0 min): 100% | % Remaining of Initial (n = 1), 15 min ([3]; dog plasma, test article 1 μM, 37° C., pH 7.4, 15 min): 8.7% | % Remaining of Initial (n = 1), 30 min ([3]; dog plasma, test article 1 μM, 37° C., pH 7.4, 30 min): 12% | % Remaining of Initial (n = 1), 60 min ([3]; dog plasma, test article 1 μM, 37° C., pH 7.4, 60 min): 1.2% | % Remaining of Initial (n = 1), 120 min ([3]; dog plasma, test article 1 μM, 37° C., pH 7.4, 120 min): <1.0% | half-life at 1 μM ([3]; test article 1 μM, 37° C., pH 7.4): 4.7 min

CCCCCCCCCCCCCCCC(=O)NCCOC(=O)CCC(=O)OC(COC(=O)CCC)COC(=O)CCC [Compound I-16]
half-life [4]: < 1 min | effect on thermal hyperalgesia induced by carrageenan ([5]; I-16 10.25 mg/kg PO (5 mg/kg equivalents of PEA), any time point (4 and 24 hours)): did not significantly reduce; also recorded: no significant effect | effect on thermal hyperalgesia induced by carrageenan ([5]; I-16 20.50 mg/kg PO, 4-hour time point, 20.5 mg/kg): significantly reduced thermal hyperalgesia; also recorded: significantly reducing thermal hyperalgesia | effect on thermal hyperalgesia induced by carrageenan ([5]; I-16 20.50 mg/kg PO, 24-hour time point): did not significantly reduce thermal hyperalgesia | overall effect on thermal hyperalgesia ([5]; I-16 10.25 and 20.50 mg/kg PO): dose- and time-dependent reduction of thermal hyperalgesia | Bioavailability ([1]; male, Sprague-Dawley): 12.1% | % Remaining of Initial (n = 1) ([6]; 0 min): 100% | Measured Concentration of Drug ([6]; 0 min): 0.088 µM | % Remaining of Initial (n = 1) ([6]; 15 min): <4.5% | Measured Concentration of Drug ([6]; 15 min): 0 µM | % Remaining of Initial (n = 1) ([6]; 30 min): <4.5% | Measured Concentration of Drug ([6]; 30 min): 0 µM | % Remaining of Initial (n = 1) ([6]; 60 min): <4.5% | Measured Concentration of Drug ([6]; 60 min): 0 µM | % Remaining of Initial (n = 1) ([6]; 120 min): <4.5% | Measured Concentration of Drug ([6]; 120 min): 0 µM | % Remaining of Initial ([3]; dog plasma, 0 min): 100% | % Remaining of Initial ([3]; dog plasma, 15 min): 91% | % Remaining of Initial ([3]; dog plasma, 30 min): 65% | % Remaining of Initial ([3]; dog plasma, 60 min): 39% | % Remaining of Initial ([3]; dog plasma, 120 min): 13% | half-life at 1 μM [3]: 44 min
